These results are taken from PubChem BioAssay AID248 (DTP/NCI, 2004).

Values joined by “and” are separate entries in the source; they are usually repeats but may differ in a detail not shown here. Equal entries are not always repeated. Inconclusive results and toxic doses are left out.

The experiment deals with L1210 leukemia ip in BDF1 mice, survival T/C. Briefly: NCI In Vivo Anticancer Drug Screen. Data for tumor model L1210 Leukemia (intraperitoneal) in B6D2F1 (BDF1) mice. The conditions noted are these: endpoint: mean survival time, higher = longer survival. An outline of the steps:
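Survival endpoint. Drug-treated group vs vehicle group, expressed as T divided by C. Tumor passaged by transplantation.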

Where [1] appears, read: dose: 100.0 mg/kg/injection, schedule: Q01DX001 (ip), vehicle: saline.
Setting [2] is: dose: 200.0 mg/kg/injection, schedule: Q01DX001 (ip), vehicle: saline.
[3] abbreviates: dose: 100.0 mg/kg/injection, schedule: Q01DX001 (ip), vehicle: carboxymethylcellulose (CMC).
Setting [4] is: dose: 200.0 mg/kg/injection, schedule: Q01DX001 (ip), vehicle: carboxymethylcellulose (CMC).
Where [5] appears, read: dose: 400.0 mg/kg/injection, schedule: Q01DX001 (ip), vehicle: carboxymethylcellulose (CMC).
Where [6] appears, read: dose: 100.0 mg/kg/injection, schedule: Q04DX002 (ip), vehicle: saline.
Where [7] appears, read: dose: 100.0 mg/kg/injection, schedule: Q04DX003 (ip), vehicle: saline with Tween-80.
Setting [8] is: dose: 200.0 mg/kg/injection, schedule: Q04DX003 (ip), vehicle: saline with Tween-80.
[9] abbreviates: dose: 400.0 mg/kg/injection, schedule: Q04DX003 (ip), vehicle: saline with Tween-80.
Setting [10] is: dose: 100.0 mg/kg/injection, schedule: Q01DX009 (ip), vehicle: Klucel (hydroxypropylcellulose) (HPC).
Where [11] appears, read: dose: 50.0 mg/kg/injection, schedule: Q01DX001 (ip), vehicle: saline.
Where [12] appears, read: dose: 100.0 mg/kg/injection, schedule: Q01DX009 (ip), vehicle: saline with Tween-80.
Setting [13] is: dose: 200.0 mg/kg/injection, schedule: Q01DX009 (ip), vehicle: saline with Tween-80.

For the compound `O=C1C(O)C23CC=CCC12CC=CC3` (stereo not given), the T/C reads like this: under setting [1], 116 % of control; under setting [2], 105 % of control; (dose: 400.0 mg/kg/injection, schedule: Q01DX001 (ip), vehicle: saline) 100 % of control.
`Nc1ccc(C(=O)CC(N)C(=O)O)cc1O` (stereo not given): the T/C under setting [3] is 112 % of control, the T/C under setting [4] is 91 % of control and the T/C under setting [5] was 100 % of control.
As to `FC(F)(F)C(Cl)(c1ccc(Cl)cc1)c1ccc(Cl)cc1`, the T/C (dose: 100.0 mg/kg/injection, schedule: Q04DX003 (sc), vehicle: olive oil, sesame oil, peanut oil) was 102 % of control and the T/C (dose: 400.0 mg/kg/injection, schedule: Q04DX003 (sc), vehicle: olive oil, sesame oil, peanut oil) was 100 % of control.
On to `COc1ccc2c(=O)c(C)c(C)oc2c1CN1CCOCC1`, for which the T/C reads like this: (dose: 0.78 mg/kg/injection, schedule: Q01DX009 (ip), vehicle: saline) 94 % of control; (dose: 1.56 mg/kg/injection, schedule: Q01DX009 (ip), vehicle: saline) 98 % of control; (dose: 3.12 mg/kg/injection, schedule: Q01DX009 (ip), vehicle: saline) 107 % of control; (dose: 6.25 mg/kg/injection, schedule: Q01DX009 (ip), vehicle: saline) 100 % of control.
As to `O=C(O)C(=O)c1c(O)n(-c2ccccc2)c2ccccc12`, the T/C was 95 % of control (dose: 25.0 mg/kg/injection, schedule: Q01DX001 (ip), vehicle: Klucel (hydroxypropylcellulose) (HPC)); 95 % of control (dose: 50.0 mg/kg/injection, schedule: Q01DX001 (ip), vehicle: Klucel (hydroxypropylcellulose) (HPC)); 93 % of control and 92 % of control (dose: 100.0 mg/kg/injection, schedule: Q01DX001 (ip), vehicle: Klucel (hydroxypropylcellulose) (HPC)).
On to `CC1(C)OC2OC(C(O)CO)C(O)C2O1` (stereo not given), for which the T/C by setting is: under setting [6], 86 % of control; (dose: 200.0 mg/kg/injection, schedule: Q04DX002 (ip), vehicle: saline) 107 % of control; (dose: 400.0 mg/kg/injection, schedule: Q04DX002 (ip), vehicle: saline) 90 % of control.
For the compound `C(CC1CCCCC1)=C(CCC1CCCCC1)CCC1CCCCC1`, the T/C was 103 % of control under setting [7], 105 % of control under setting [8] and 100 % of control under setting [9].
`CCOC(=O)c1ccc(NC(=O)Nc2cc(Cl)c(OC)cc2OC)cc1`: the T/C under setting [10] is 98 % of control; the T/C (dose: 200.0 mg/kg/injection, schedule: Q01DX009 (ip), vehicle: Klucel (hydroxypropylcellulose) (HPC)) is 95 % of control; the T/C (dose: 400.0 mg/kg/injection, schedule: Q01DX009 (ip), vehicle: Klucel (hydroxypropylcellulose) (HPC)) was 105 % of control.
`CC(C)(CO)CO`: the T/C is 97 % of control (dose: 25.0 mg/kg/injection, schedule: Q01DX009 (ip), vehicle: saline); 113 % of control (dose: 25.0 mg/kg/injection, schedule: Q04DX002 (ip), vehicle: saline); 108 % of control (dose: 50.0 mg/kg/injection, schedule: Q01DX009 (ip), vehicle: saline); 102 % of control (dose: 50.0 mg/kg/injection, schedule: Q04DX002 (ip), vehicle: saline); 105 % of control (dose: 100.0 mg/kg/injection, schedule: Q01DX009 (ip), vehicle: saline); 102 % of control and 103 % of control under setting [6].
As for `Cc1n[nH]c(C)c1C(C)C`, the T/C by setting is: under setting [11], 103 % of control; under setting [1], 101 % of control; under setting [2], 86 % of control.
Regarding `NS(=O)(=O)c1ccc(N=Nc2nc3[nH]cnc(=S)c3[nH]2)cc1`, the T/C (dose: 8.0 mg/kg/injection, schedule: Q01DX009 (ip), vehicle: saline) is 116 % of control; the T/C (dose: 15.0 mg/kg/injection, schedule: Q01DX009 (ip), vehicle: saline) is 121 % of control; the T/C (dose: 62.5 mg/kg/injection, schedule: Q01DX015 (ip), vehicle: saline) was 115 % of control; the T/C (dose: 125.0 mg/kg/injection, schedule: Q01DX015 (ip), vehicle: saline) is 121 % of control; the T/C (dose: 250.0 mg/kg/injection, schedule: Q01DX009 (ip), vehicle: saline) is 104 % of control; the T/C (dose: 250.0 mg/kg/injection, schedule: Q01DX015 (ip), vehicle: saline) is 153 % of control.
In the case of `O=C(Nc1cccc([N+](=O)[O-])c1)Oc1ccc(-c2ccccc2)cc1`, the T/C reads like this: under setting [12], 101 % of control and 103 % of control; (dose: 100.0 mg/kg/injection, schedule: Q04DX002 (ip), vehicle: saline with Tween-80) 97 % of control and 111 % of control; under setting [7], 93 % of control; under setting [13], 100 % of control and 101 % of control; (dose: 200.0 mg/kg/injection, schedule: Q04DX002 (ip), vehicle: saline with Tween-80) 96 % of control and 104 % of control; under setting [8], 93 % of control. In addition, the T/C is, setting by setting: (dose: 400.0 mg/kg/injection, schedule: Q01DX009 (ip), vehicle: saline with Tween-80) 94 % of control; (dose: 400.0 mg/kg/injection, schedule: Q04DX002 (ip), vehicle: saline with Tween-80) 93 % of control and 103 % of control; under setting [9], 102 % of control.
As for `CCCCN(c1ccccc1)c1ncnc2c1cnn2C`, the T/C was 100 % of control (dose: 50.0 mg/kg/injection, schedule: Q01DX009 (ip), vehicle: saline with Tween-80); 102 % of control and 104 % of control under setting [12]; 97 % of control under setting [7]; 98 % of control and 105 % of control under setting [13]; 96 % of control under setting [8]; 94 % of control under setting [9].
`CCCCCCNC(=S)Nc1ccccc1`: the T/C under setting [11] is 97 % of control, the T/C under setting [1] is 103 % of control and the T/C under setting [2] is 97 % of control.
On to `CC(CN=[N+]=[N-])OC(=O)C(F)(F)F` (stereo not given), for which the T/C is 104 % of control (dose: 37.5 mg/kg/injection, schedule: Q04DX003 (ip), vehicle: saline); 102 % of control (dose: 75.0 mg/kg/injection, schedule: Q04DX003 (ip), vehicle: saline); 106 % of control (dose: 150.0 mg/kg/injection, schedule: Q04DX003 (ip), vehicle: saline).
In the case of `O=[N+]([O-])c1c[nH]c2[nH]cnc(=S)c12`, the T/C under setting [3] is 102 % of control and the T/C under setting [4] is 87 % of control.
With `CCCCCC(=O)N1CCCCC1`, the T/C by setting is: (dose: 25.0 mg/kg/injection, schedule: Q01DX009 (ip), vehicle: Klucel (hydroxypropylcellulose) (HPC)) 93 % of control; (dose: 50.0 mg/kg/injection, schedule: Q01DX009 (ip), vehicle: Klucel (hydroxypropylcellulose) (HPC)) 96 % of control; under setting [10], 94 % of control.
`CCC(C)C(CN)(CCN(C)CC)c1cccc2ccccc12` (stereo not given): under setting [7], the T/C is 90 % of control.
On to `CC(=O)Nc1ccc(S(=O)(=O)SC(Cl)(Cl)Cl)cc1`, for which the T/C reads like this: (dose: 100.0 mg/kg/injection, schedule: Q01DX009 (ip), vehicle: gum acacia) 99 % of control; (dose: 200.0 mg/kg/injection, schedule: Q01DX009 (ip), vehicle: gum acacia) 94 % of control; (dose: 400.0 mg/kg/injection, schedule: Q01DX009 (ip), vehicle: gum acacia) 99 % of control.
As to `CCn1[nH]cc2c3nnc(-c4ccccc4)c3cnc21`, the T/C is 98 % of control (dose: 100.0 mg/kg/injection, schedule: Q04DX002 (ip), vehicle: Klucel (hydroxypropylcellulose) (HPC)); 92 % of control (dose: 200.0 mg/kg/injection, schedule: Q04DX002 (ip), vehicle: Klucel (hydroxypropylcellulose) (HPC)); 95 % of control (dose: 400.0 mg/kg/injection, schedule: Q04DX002 (ip), vehicle: Klucel (hydroxypropylcellulose) (HPC)).
As for `CN(C)Cc1c[nH]c2ccsc12`, the T/C was 98 % of control under setting [7] and 87 % of control under setting [8].
In the case of `COc1ccc(N(C)C(C)=S)cc1`, the T/C is, setting by setting: (dose: 100.0 mg/kg/injection, schedule: Q04DX003 (ip), vehicle: gum acacia) 96 % of control; (dose: 200.0 mg/kg/injection, schedule: Q04DX003 (ip), vehicle: gum acacia) 103 % of control.
On to `CC(=O)OC1c2cc(Cl)ccc2-c2c(Cl)cc(Cl)cc21` (stereo not given), for which the T/C was 95 % of control under setting [3], 95 % of control under setting [4] and 95 % of control under setting [5].
For `Cc1ccc(NC(=S)NCCO)cc1C`, the T/C by setting is: under setting [7], 98 % of control; under setting [8], 98 % of control; under setting [9], 97 % of control.
`Cc1ccc(S(=O)(=O)N2CCCC(O)c3ccccc32)cc1` (stereo not given): the T/C was 108 % of control under setting [3], 106 % of control under setting [4] and 116 % of control under setting [5].
